From patent US8993630B2, “Substituted sulphonamido phenoxybenzamides” (Bayer Intellectual Property GmbH, priority 2008, dated 2015)

Tests used:
[1] = molecular target: T1, MEK1 (Homo sapiens, UniProt Q02750); experiment: MEK1 activation kinase assay (Cot1/GST-MEK1 HTRF); type: biochemical; settings: GST-MEK1 substrate, read-out: IC50, inhibition of MEK1 activation
T1 construct: purchased Millipore 14-420 (GST-MEK1); 14-703 (Cot1); host or cells: Cot1: insect cells (SF21)
From the text: The kinase Cot1 activates MEK1 by phosphorylating its activation loop. The inhibitory activity of compounds of the present invention on this activation of MEK1 was quantified employing the HTRF assay described in the following paragraphs.
N-terminally His6-tagged recombinant kinase domain of the human Cot1 (amino acids 30-397, purchased from Millipore, cat. no 14-703) expressed in insect cells (SF21) and purified by Ni-NTA affinity chromatography was used as kinase. As substrate for the kinase reaction the unactive C-terminally His6-tagged GST-MEK1 fusion protein (Millipore cat. no 14-420) was used.
For the assay 50 nl of a 100fold concentrated solution of the test compound in DMSO was pipetted into a black low volume 384well microtiter plate (Greiner Bio-One, Frickenhausen, Germany), 3 μl of a solution of 24 nM GST-MEK1 and 166.7 μM adenosine-tri-phosphate (ATP) in assay buffer [50 mM Tris/HCl pH 7.5, 10 mM MgCl2, 2 mM dithiothreitol, 0.01% (v/v) Igepal CA 630 (Sigma), 5 mM β-phospho-glycerol] were added and the mixture was incubated for 10 min at 22° C. to allow pre-binding of the test compounds to the GST-MEK1 before the start of the kinase reaction. Then the kinase reaction was started by the addition of 2 μl of a solution of Cot1 in assay buffer and the resulting mixture was incubated for a reaction time of 20 min at 22° C. The concentration of Cot1 in the assay was adjusted depending of the activity of the enzyme lot and was chosen appropriate to have the assay in the linear range, typical enzyme concentrations were in the range of about 2 ng/μl (final conc. in the 5 μl assay volume). The reaction was stopped by the addition of 5 μl of a solution of HTRF detection reagents (13 nM anti GST-XL665 [# 61GSTXLB, Fa. Cis Biointernational, Marcoule, France], 1 nM Eu-cryptate labelled anti-phospho-MEK 1/2 (Ser217/221) [#61P17KAZ, Fa. Cis Biointernational],) in an aqueous EDTA-solution (100 mM EDTA, 500 mM KF, 0.2% (w/v) bovine serum albumin in 100 mM HEPES/NaOH pH 7.5).
The resulting mixture was incubated 2 h at 22° C. to allow the binding of the phosphorylated GST-MEK1 to the anti-GST-XL665 and the Eu-cryptate labelled anti-phospho-MEK 1/2 antibody. Subsequently the amount of Ser217/Ser221-phosphorylated substrate was evaluated by measurement of the resonance energy transfer from the Eu-Cryptate-labelled anti-phospho-MEK antibody to the anti-GST-XL665. Therefore, the fluorescence emissions at 620 nm and 665 nm after excitation at 350 nm was measured in a HTRF reader, e.g. a Rubystar (BMG Labtechnologies, Offenburg, Germany) or a Viewlux (Perkin-Elmer). The ratio of the emissions at 665 nm and at […] was taken as the measure for the amount of phosphorylated substrate. […]

[2] = system: MEK1/2; settings: cited from earlier work
[3] = system: colon cancer; settings: oral treatment, mouse models; cited from earlier work
[4] = system: A375 cells; experiment: A375 proliferation crystal violet (CV) assay; type: cell-based; settings: Homo sapiens, A-375, 96 h, 4 days, crystal violet staining
Procedure: Cultivated human A375 cells were plated out in a density of 1500 cells/measurement point in 200 μl of growth medium (DMEM/HAMS F12 (Biochrom; FG4815) with 10% FBS and 2 mM Glutamine) in a 96-well multititer plate. After 24 hours, the cells from a plate (zero plate) were stained with crystal violet (see below), while the medium in the other plates was replaced by fresh culture medium (200 μl) to which the test substances had been added in various concentrations (0 μM, and in the range 0.3 nM -30 μM; the final concentration of the solvent dimethyl sulphoxide was 0.5%). The cells were incubated in the presence of the test substances for 4 days. The cell proliferation was determined by staining the cells with crystal violet: the cells were fixed by adding 20 μl/measurement point of an 11% glutaraldehyde solution at room temperature for 15 min. After the fixed cells had been washed three times with water, the plates were dried at room temperature. […] The dye was dissolved by adding 100 μl/measurement point of a 10% acetic acid solution, and the extinction was determined by photometry at a wavelength of 595 nm. The percentage change in cell growth was calculated by normalizing the measurements to the extinctions of the zero point plate (=0%) and the extinction of the untreated (0 μM) cells (=100%). The IC50 values were determined by means of a 4-parameter fit using the company's own software.

T1 sequence (Q02750 whole entry): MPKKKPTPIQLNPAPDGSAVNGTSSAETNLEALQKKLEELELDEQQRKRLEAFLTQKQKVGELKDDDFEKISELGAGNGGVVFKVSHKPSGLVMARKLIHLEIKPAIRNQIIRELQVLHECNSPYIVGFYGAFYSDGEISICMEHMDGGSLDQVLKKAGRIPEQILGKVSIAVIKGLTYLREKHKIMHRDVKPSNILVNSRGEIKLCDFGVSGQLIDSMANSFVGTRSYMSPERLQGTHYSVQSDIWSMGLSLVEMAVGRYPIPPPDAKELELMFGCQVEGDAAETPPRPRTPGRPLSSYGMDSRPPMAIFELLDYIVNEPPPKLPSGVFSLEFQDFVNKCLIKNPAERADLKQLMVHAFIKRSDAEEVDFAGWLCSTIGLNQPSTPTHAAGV

Compound | IC50 [1] | IC50 [4] | IC50 [2] | colon cancer growth in vivo [3]
O=C(NOCC1CC1)c1ccc(F)c(F)c1Nc1ccc(I)cc1Cl [PD184352] | – | – | low nanomolar range | inhibit colon cancer growth in vivo in mouse models
CCS(=O)(=O)Nc1cccc(COc2cc(F)cc(Nc3ccc(I)cc3F)c2C(N)=O)c1 [Example Compound 3.1, 2-(3-ethanesulfonylamino-benzyloxy)-4-fluoro-6-(2-fluoro-4-iodo-phenylamino)-benzamide] | < 300 nM | – | – | –

Further lines, with some results ahead:

IC50 [1] | IC50 [4] | Compound | IC50 [2] | colon cancer growth in vivo [3]
< 300 nM | – | CC(C)S(=O)(=O)Nc1cncc(Oc2cc(F)cc(Nc3ccc(I)cc3F)c2C(N)=O)c1 [Example Compound 2.1, 4-fluoro-2-(2-fluoro-4-iodo-phenylamino)-6-[5-(propane-2-sulfonylamino)-pyridin-3-yloxy]-benzamide] | – | –
< 300 nM | < 100 nM | CC(C)S(=O)(=O)Nc1cccc(Oc2cc(F)cc(Nc3ccc(I)cc3F)c2C(N)=O)c1 [Example Compound 1.2, 4-fluoro-2-(2-fluoro-4-iodo-phenylamino)-6-[3-(propane-2-sulfonylamino)-phenoxy]-benzamide] | – | –
< 300 nM | < 100 nM | CCS(=O)(=O)Nc1cccc(Oc2cc(F)cc(Nc3ccc(I)cc3F)c2C(N)=O)c1 [Example Compound 1.1, 2-(3-ethanesulfonylamino-phenoxy)-4-fluoro-6-(2-fluoro-4-iodo-phenylamino)-benzamide] | – | –
